Experimental data from article PMC11162409, “Phenylalanine as an effective stabilizer and aggregation inhibitor of Bacillus amyloliquefaciens alpha-amylase” (AMB Express, 2024).

Biological target: Bacillus amyloliquefaciens alpha-amylase (BAA) (Bacillus amyloliquefaciens, UniProt P00692)
Experiment: Bernfeld DNS assay of starch hydrolysis ([…] nm) with commercial enzyme
Type: biochemical

Chain of Bacillus amyloliquefaciens alpha-amylase (BAA) (P00692 32-514): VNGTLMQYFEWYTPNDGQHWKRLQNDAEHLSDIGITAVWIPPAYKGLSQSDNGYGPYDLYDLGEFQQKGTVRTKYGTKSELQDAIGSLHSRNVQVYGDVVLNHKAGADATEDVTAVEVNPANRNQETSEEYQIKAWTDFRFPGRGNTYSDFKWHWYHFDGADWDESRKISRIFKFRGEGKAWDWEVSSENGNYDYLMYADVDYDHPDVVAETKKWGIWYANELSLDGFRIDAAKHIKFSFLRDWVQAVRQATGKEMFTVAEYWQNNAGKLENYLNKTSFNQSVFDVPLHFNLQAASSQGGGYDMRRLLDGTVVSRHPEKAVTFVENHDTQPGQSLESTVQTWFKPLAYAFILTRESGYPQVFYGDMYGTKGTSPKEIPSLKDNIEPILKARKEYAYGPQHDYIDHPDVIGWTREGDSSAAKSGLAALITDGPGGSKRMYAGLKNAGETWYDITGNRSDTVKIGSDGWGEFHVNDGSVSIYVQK

`N[C@@H](Cc1ccc(O)cc1)C(=O)O` [Tyr, tyrosine] was tested, and the IC50 was ~100 mM.
